# In the supplement of paper PMC10307832:
# Compound: O=C(/C=C/c1ccccc1)NC(NC(=S)Nc1cccc2cccnc12)C(Cl)(Cl)Cl [Salubrinal] + Cc1cc(Nc2cc(N3CCN(C)CC3)nc(Sc3ccc(NC(=O)C4CC4)cc3)n2)n[nH]1 [Tozasertib] (partner 0.1 µM)
# Test: relative viability (nuclei count vs DMSO), 5 days (fraction); higher = more cells survive
# Conditions: first compound 0.08 µM
# Summary of the method: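 Dosing by pin tool came one day after lung cancer cell lines were seeded in 1536-well plates, using either one drug or a fixed anchor-drug dose plus five library-drug doses (not always all listed) in √10 steps. After 5 days, nuclei were counted on 4× images. Relative viability is treated-well nuclei count divided by vehicle-well nuclei count, and values are medians of duplicate plates.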
row,Cell Line,relative viability
1,NCI-H727,0.651
2,NCI-H1650,0.419
3,NCI-H1993,0.653
4,SW 1573,0.176
5,NCI-H838,0.292
6,LCLC-103H,0.487
7,NCI-H520,0.501
8,NCI-H2126,0.979
9,EMC-BAC-2,0.239
10,NCI-H2085,0.96
11,HCC-366,0.106
12,NCI-H1666,0.646
13,NCI-H596,0.968
14,LK-2,0.158
15,NCI-H2087,0.299
16,NCI-H358,0.107

row,Cell Line,relative viability
1,NCI-H2170,1.02
2,H3255,0.502
3,COR-L23,0.191
4,COR-L 105,0.665
5,LOU-NH91,0.794
6,ChaGo-K-1,0.257
7,NCI-H1793,0.504
8,NCI-H2405,0.722
9,HOP-62,0.334
10,HCC-44,1.24
11,SK-MES-1,1.01
12,LU99A,0.253
13,HCC-78,0.372
14,NCI-H1623,0.431
15,NCI-H1648,0.466

# Same assay, conditions: first compound 0.253 µM
row,Cell Line,relative viability
1,NCI-H522,0.588
2,NCI-H2342,0.503
3,NCI-H727,0.718
4,NCI-H1650,0.349
5,NCI-H1993,0.577
6,SW 1573,0.172
7,NCI-H838,0.246
8,LCLC-103H,0.445
9,NCI-H520,0.446
10,NCI-H2126,0.801
11,EMC-BAC-2,0.289
12,NCI-H2085,0.776
13,HCC-366,0.0941
14,NCI-H1666,0.587
15,NCI-H596,1.1
16,LK-2,0.197
17,NCI-H2087,0.212

row,Cell Line,relative viability
1,NCI-H358,0.12
2,NCI-H2170,0.778
3,H3255,0.65
4,COR-L23,0.185
5,COR-L 105,0.37
6,LOU-NH91,0.639
7,ChaGo-K-1,0.264
8,NCI-H1793,0.637
9,NCI-H2405,0.748
10,HOP-62,0.378
11,HCC-44,0.916
12,SK-MES-1,0.816
13,LU99A,0.267
14,HCC-78,0.343
15,NCI-H1623,0.434
16,NCI-H1648,0.586

# Same assay, conditions: first compound 0.8 µM
row,Cell Line,relative viability
1,NCI-H522,0.524
2,NCI-H2342,0.527
3,NCI-H727,0.563
4,NCI-H1650,0.336
5,NCI-H1993,0.597
6,SW 1573,0.155
7,NCI-H838,0.291
8,LCLC-103H,0.404
9,NCI-H520,0.44
10,NCI-H2126,0.968
11,EMC-BAC-2,0.313
12,NCI-H2085,0.854
13,HCC-366,0.118
14,NCI-H1666,0.611
15,NCI-H596,0.897
16,LK-2,0.178
17,NCI-H2087,0.295

row,Cell Line,relative viability
1,NCI-H358,0.111
2,NCI-H2170,0.783
3,H3255,0.802
4,COR-L23,0.194
5,COR-L 105,0.312
6,LOU-NH91,0.626
7,ChaGo-K-1,0.231
8,NCI-H1793,0.234
9,NCI-H2405,0.801
10,HOP-62,0.409
11,HCC-44,1.08
12,SK-MES-1,1.04
13,LU99A,0.265
14,HCC-78,0.345
15,NCI-H1623,0.445
16,NCI-H1648,0.334

# Same assay, conditions: first compound 2.53 µM
row,Cell Line,relative viability
1,NCI-H522,0.589
2,NCI-H2342,0.583
3,NCI-H727,0.608
4,NCI-H1650,0.327
5,NCI-H1993,0.674
6,SW 1573,0.194
7,NCI-H838,0.25
8,LCLC-103H,0.498
9,NCI-H520,0.403
10,NCI-H2126,0.827
11,EMC-BAC-2,0.255
12,NCI-H2085,0.588
13,HCC-366,0.0829
14,NCI-H1666,0.553
15,NCI-H596,0.909
16,LK-2,0.198
17,NCI-H2087,0.229

row,Cell Line,relative viability
1,NCI-H358,0.108
2,NCI-H2170,0.77
3,H3255,0.551
4,COR-L23,0.168
5,COR-L 105,0.335
6,LOU-NH91,0.706
7,ChaGo-K-1,0.216
8,NCI-H1793,0.26
9,NCI-H2405,0.713
10,HOP-62,0.347
11,HCC-44,0.74
12,SK-MES-1,0.895
13,LU99A,0.275
14,HCC-78,0.351
15,NCI-H1623,0.396
16,NCI-H1648,0.501

# Same assay, conditions: first compound 8 µM
row,Cell Line,relative viability
1,NCI-H522,0.569
2,NCI-H2342,0.533
3,NCI-H727,0.575
4,NCI-H1650,0.407
5,NCI-H1993,0.649
6,SW 1573,0.151
7,NCI-H838,0.259
8,LCLC-103H,0.42
9,NCI-H520,0.469
10,NCI-H2126,0.666
11,EMC-BAC-2,0.261
12,NCI-H2085,0.77
13,HCC-366,0.0635
14,NCI-H1666,0.608
15,NCI-H596,0.806
16,LK-2,0.176
17,NCI-H2087,0.195

row,Cell Line,relative viability
1,NCI-H358,0.0983
2,NCI-H2170,0.665
3,H3255,0.477
4,COR-L23,0.145
5,COR-L 105,0.328
6,LOU-NH91,0.59
7,ChaGo-K-1,0.216
8,NCI-H1793,0.326
9,NCI-H2405,0.696
10,HOP-62,0.334
11,HCC-44,0.708
12,SK-MES-1,0.694
13,LU99A,0.27
14,HCC-78,0.314
15,NCI-H1623,0.412
16,NCI-H1648,0.247
